The term IC50 denotes the concentration at which inhibition is half-maximal.

Data set [1] relates to GFP-labeled mutant cells of FMCD animal models. In words: Neuronal (mutant) cell size after ICV injection of ASO. It is filed as in vivo, mouse. Particulars: intractable epilepsy models, week 4-5 after ICV injection. The protocol: Week 4-5 after intracerebroventricular injection of ASO into the FMCD animal models established using pCIG-mTOR mutant-IRES-EGFP vector of Example 1, the brain was removed, fixed, sectioned, and immunostained. For neuronal cell size (FIG. 22), GFP (green)-labeled mutant cells (ASO control or ASO eIF4E) were measured for size in the obtained mouse brain tissues.

Data set [2] relates to eIF4E mRNA. Kind of data set: ASO screening by real-time PCR (eIF4E mRNA, HEK293T). It is filed as cell-based, human. Particulars: relative to ASO #75. The protocol: In an alternative approach for screening the designed ASO candidates, the human cell line HEK293T cells (human) were cultured on 96-well culture plates for 24 hours and then transfected with ASO candidates with the aid of iN-fect™ transfection reagent (INTRON, 15081). Twenty four hours after transfection, the cells were harvested and subjected to lysis and RNA extraction using SuperPrep™ II Cell Lysis & RT Kit reagent (Toyobo, SCQ-401). From the RNA thus obtained, cDNA was synthesized by reverse transcription PCR. Real-time PCR was performed in CXF384 Touch™ Real-Time System (Bio-Rad) with SYBR® green real-time PCR master mix (Toyobo, QPK-201). Forward and reverse PCR primer sequences for eIF4E and GAPDH are as follows:
The real-time PCR conditions in the CXF384_Touch™ Real-Time System were as follows: 95° C. for 1 min, then 95° C. for 15 sec, 59.5° C. for 20 sec, and 72° C. for 30 sec for 39 cycles. Each sample was analyzed in triplicates. […] FIGS. 16b and 16c are graphs in which relative eIF4E expression levels are quantitatively expressed as ratios compared to the GAPDH expression level in HEK293T cells treated with ASO candidates.

Data set [3] relates to eIF4E mRNA. In words: Inhibitory concentration (IC50) against eIF4E mRNA, real-time PCR, HEK293T. In kind it is cell-based, human. As to the method:
In order to calculate IC50 values for ASO sequences, ASO candidates are transfected at different concentrations (20 nM, 80 nM, 320 nM) into the human cell line HEK293T (human) with the aid of iN-fect™ in vitro transfection reagent (15081, iNtRON, Republic of Korea). Twenty four hours after ASO transfection, the cells were harvested and analyzed for eIF4E mRNA expression reduction by real-time PCR. Relative eIF4E mRNA expression was normalized to the expression level using GAPDH as an internal control and was evaluated using the 2^−ΔΔCq method.
For comparison of inhibitory concentrations (IC50) among ASO candidates, a dose-response curve was derived by normalized nonlinear regression using Prism8 program (GraphPad Software, USA) (FIG. 16e).
In general terms: Quantitative PCR measures a nucleic acid by following its amplification.

In data set [4] the test system is FMCD and epilepsy animal models (mTOR-p.C1483Y, mTOR-p.L2427P). In words: Marble burying test, FMCD epilepsy models. Particulars: ASO-eIF4E models compared to ASO-control models. In kind it is in vivo, mouse. As to the method: A mouse was placed in the cage.
(§1) Experiments were performed on the FMCD and epilepsy animal models (mTOR-p.C1483Y, mTOR-p.L2427P) of Example 7-1 and the control normal animal models (mTOR-WT). The same sheIF4E as that described in Example 2 was used. Week 2 after sheIF4E injection, the handling was performed in the animals. Week 3 after sheIF4E injection, the animals were subjected to the behavioral tests.
(§2) The epilepsy animal models were subjected to the substantially same behavioral abnormality assay as in Example 6. The results are depicted in FIGS. 28 and 29.
(§3) Briefly, ASO #77 was administered by ICV injection to the FMCD and epilepsy animal models were generated with the pCIG-mTOR mutant-IRES-EGFP of Example 1. ASO #77 was evaluated for therapeutic potential for neuropsychiatric disorder accompanying the FMCD epilepsy animal models in the substantially same manner as in Example 6.

For data set [5], the system named is mutant-expressing cells in the brain tissue. Particulars: mouse, in vivo.
In data set [6] the test system is FMCD and epilepsy animal models (mTOR-p.C1483Y, mTOR-p.L2427P). Kind of data set: Light & dark box test, FMCD epilepsy models. It is filed as in vivo, mouse. Particulars: ASO-eIF4E models compared to ASO-control models. As to the method:
Behaviors were recorded and analyzed using EthoVision XT (Noldus).
as §1, §2, §3

Data set [7] relates to C57BL/6J mice. Particulars: mouse, in vivo.
The test system of data set [8] is eIF4E. Kind of data set: Immunofluorescence of eIF4E in brain cells after ASO injection. In kind it is in vivo, mouse. Particulars: week 4-5 after ICV injection, FMCD models. As to the method:
Week 4-5 after intracerebroventricular injection of ASO into the animal models established using pCIG-mTOR mutant-IRES-EGFP vector of Example 1, the brain was removed, fixed, sectioned, and immunostained.
Immunostaining with antibodies against ADK, CREB1, IRSp53, and eIF4E and Imaging with fluorescence were conducted in the same manner as in Example 2.

Data set [9] concerns C57BL/6J mice. Particulars: mouse, in vivo. This is another data set of the same source.

On to “ASO #77: eIF4E-targeting antisense oligonucleotide of SEQ ID NO: 77, 2′-MOE gapmer, all phosphorothioate linkages (antisense GATCCTTCACCAATGTTACA; all phosphorothioate, sugars by position and methylation of C not given here; 2'-MOE gapmer)”, for which, in data set [1], the mutant cell size result is “therapeutic effects”. Further, in data set [2], the “Expression level of eIF4E(%) compared to ASO#75” value turned out to be 121%. In [3] (HEK293T, 20, 80, 320 nM, 24 h after transfection, read-out: IC50 against eIF4E mRNA expression), the IC50 was 53.8 nM. The “eIF4E mRNA expression compared to the mismatch ASO” value in data set [3] (HEK293T, at all of the doses (20 nM, 80 nM, 320 nM)) is “inhibited”. The “number of buried marbles (repetitive behavior)” value in [4] is reported as “increased”. Besides, the “delivery into mutant-expressing cells in the brain tissue” value in data set [5] is “effectively delivered”. Further, the “time spent in center (residence time within the light box)” value was “increased” in data set [6] and “not changed” in data set [9]. Further, the “number of buried marbles (index of repetitive behavior)” value in [7] is recorded as “not changed”. The “eIF4E expression in brain cells (immunofluorescence)” value in [8] is listed as “reduction of eIF4E expression”.

The values above are taken from US12570975B2, “Composition for diagnosis or treatment of a condition associated with increased activity of EIF4E comprising an EIF4E inhibitor” (SoVarGen Co., Ltd., priority 2019, dated 2026).
